Source: patent US4673562A, “Bisamide bisthiol compounds useful for making technetium radiodiagnostic renal agents” (The Children's Medical Center Corporation, priority 1983, dated 1987)
“And” between values parts separate entries of the source, which are not always exact repeats. Equal values may be shown once.

Experiments:
[1] = Gamma camera: % total dose in bladder, 99mTc complexes coinjected with 131I-OIH into normal dogs (Tables I, III); type: in vivo, dog; set-up: Comparison of % total dose in bladder versus 131I-OIH, column headed by drawing 19 (± s.d.): unit not given here; settings: for % Total Dose In Bladder (gamma camera data): single animals
Method: The two fractions collected from the products of synthesis in each case were denoted (XVIA), (XVIB), (XXXIA), and (XXXIB), respectively.
Images were recorded at 1, 5, 10, 15, 20, 25, 30 and 35 minutes after administration. The initial image at one minute was used to collect 750,000 counts. All subsequent images were exposed for the same length of time as this first image, and the number of counts noted. […] In this way, the counts collected in the camera images cound be related to absolute activity levels (mCi or μCi). The animals were then observed until the urine samples were free of ^99m Tc.
The values represent the calculated % total dose in the camera region of interest set over the bladder.

[2] = Biodistribution in Swiss Webster albino male mice, coinjected with 131I-OIH (Tables IV, V); type: in vivo, mouse
Method: The diastereomers (XVIA) and (XVIB) were synthesized and then isolated by high pressure liquid chromatography as described previously, and their biodistributions obtained in groups in six Swiss Webster albino male mice. […] The mice were then placed in metabolic cages to collect urine. At 10 and 120 minutes after injection, the penis was ligated, the mice killed with chloroform vapor, and the organs disected.

[3] = Average % total dose in urine samples of dogs (Table II); type: in vivo, dog; settings: mean
Source text: The diastereomeric ^99m Tc complexes formed by reduction of pertechnetate in the presence of (2-benzoylthioacetyl)- glycyl-(S-benzoyl)-cysteine methyl ester (compound XVI) and N-2-(benzoylthio)ethyl)-N'-1-carbomethoxy-(2-benzoylthio)ethyl]oxamide (compound XXXI) were synthesized and separated by high pressure liquid chromatography. The two fractions collected from the products of synthesis in each case were denoted (XVIA), (XVIB), (XXXIA), and (XXXIB), respectively.
Samples of each fraction were mixed with appropriate amounts of ^131 I-OIH and coinjected into normal dogs placed under a gamma camera. Images were recorded at 1, 5, 10, 15, 20, 25, 30 and 35 minutes after administration. The initial image at one minute was used to collect 750,000 counts. All subsequent images were exposed for the same length of time as this first image, and the number of counts noted. Immediately after each count, a urine sample was drawn from the bladder via a indwelling catheter, and the ^99m Tc ANd ^131 I activity determined using an ionization chamber. In this way, the counts collected in the camera images cound be related to absolute activity levels (mCi or μCi). The animals were then observed until the urine samples were free of ^99m Tc.
In Table II can be seen the average % total dose valus observed in the urine samples collected at each time point. Also quoted in parentheses are the standard deviation and standard error of the mean.

[4] = cited from earlier work
[5] = Solubility of bisthiol compound; type: physicochemical
[6] = in vivo; cited from earlier work
[7] = Table V, 10 min, XVI B and 131I-OIH coinjected
[8] = Table V, 120 min, XVI B and 131I-OIH coinjected
[9] = Table IV, 10 min, XVI A and 131I-OIH coinjected
[10] = Table IV, 120 min, XVI A and 131I-OIH coinjected

## O=C(O)C1C[S][Tc-]23(=[O])[S]CC(=O)[N]2CC(=O)[N]13 (single isomer, unassigned) [XVIB]
[1]; 5 min post injection, normal dogs, 5 min
  % Total Dose In Bladder (gamma camera data): 12.31 % total dose and 10.03 % total dose and 19.60 % total dose
[1]; 10 min post injection, normal dogs, 10 min
  % Total Dose In Bladder (gamma camera data): 28.53 % total dose and 33.78 % total dose and 36.51 % total dose
[1]; 15 min post injection, normal dogs, 15 min
  % Total Dose In Bladder (gamma camera data): 39.47 % total dose and 45.88 % total dose and 47.52 % total dose
[1]; 20 min post injection, normal dogs, 20 min
  % Total Dose In Bladder (gamma camera data): 45.09 % total dose and 53.55 % total dose and 55.57 % total dose
[1]; 25 min post injection, normal dogs, 25 min
  % Total Dose In Bladder (gamma camera data): 48.09 % total dose and 60.94 % total dose and 59.98 % total dose
[1]; 30 min post injection, normal dogs, 30 min
  % Total Dose In Bladder (gamma camera data): 53.05 % total dose and 64.60 % total dose and 70.00 % total dose
[1]; 35 min post injection, normal dogs, 35 min
  % Total Dose In Bladder (gamma camera data): 54.63 % total dose and 73.12 % total dose and 71.57 % total dose
[1]; Table III, 35 min, average of dogs
  % total dose in bladder at 35 minutes, Average 99mTc (± s.d): 66.44 % total dose
[1]; Table III, 35 min, dogs
  Comparison of % total dose in bladder versus 131I-OIH, column headed by drawing 19 (± s.d.): 92.25
[1]; normal dogs
  pharmacokinetic behavior of the diastereomers: identical
[1]; normal dogs, versus 131I-OIH
  rate of excretion in the urine: comparable rates of excretion to each other and to OIH
[2]; [7]
  Blood, % total dose per organ ± s.d.: 1.47 ± 0.72 % total dose per organ
  Intestine, % total dose per organ ± s.d.: 0.48 ± 0.18 % total dose per organ
  Kidneys, % total dose per organ ± s.d.: 4.41 ± 3.6 % total dose per organ
  Liver, % total dose per organ ± s.d.: 0.79 ± 0.49 % total dose per organ
  Stomach, % total dose per organ ± s.d.: 0.06 ± 0.03 % total dose per organ
  Urine, % total dose ± s.d.: 79.32 ± 5.1 % total dose per organ
[2]; [8]
  Blood, % total dose per organ ± s.d.: 0.13 ± 0.10 % total dose per organ
  Intestine, % total dose per organ ± s.d.: 0.40 ± 0.17 % total dose per organ
  Kidneys, % total dose per organ ± s.d.: 0.08 ± 0.07 % total dose per organ
  Liver, % total dose per organ ± s.d.: 0.11 ± 0.06 % total dose per organ
  Stomach, % total dose per organ ± s.d.: 0.07 ± 0.12 % total dose per organ
  Urine, % total dose ± s.d.: 91.47 ± 1.1 % total dose per organ
[2]; mice, versus 131I-OIH
  clearance into the urine: cleared rapidly into the urine at comparable rates to each other and to the radiopharmaceutical ^131 I-OIH
[3]; 5 min post injection, 5 min
  Average % Total Dose in Urine Samples: 13.98 % total dose
[3]; 10 min post injection, 10 min
  Average % Total Dose in Urine Samples: 32.94 % total dose
[3]; 15 min post injection, 15 min
  Average % Total Dose in Urine Samples: 44.29 % total dose
[3]; 20 min post injection, 20 min
  Average % Total Dose in Urine Samples: 51.40 % total dose
[3]; 25 min post injection, 25 min
  Average % Total Dose in Urine Samples: 56.34 % total dose
[3]; 30 min post injection, 30 min
  Average % Total Dose in Urine Samples: 62.55 % total dose
[3]; 35 min post injection, 35 min
  Average % Total Dose in Urine Samples: 66.44 % total dose

## O=C([O-])CN(CCN(CC(=O)[O-])CC(=O)[O-])CCN(CC(=O)[O-])CC(=O)[O-].[99Tc+4] [Compound 99mTc-DTPA]
[4]; in vivo
  route of excretion: excreted exclusively by glomerular filtration

## O=C(O)CNC(=O)c1ccccc1[131I] [Compound 131I-OIH, ^131 I-ortho-iodohippurate, reference compound]
[1]; Table III, 35 min, average of dogs, coinjected with the 99mTc complex of the line
  % total dose in bladder at 35 minutes, Average 131I (± s.d): 73.60 % total dose and 72.02 % total dose and 76.69 % total dose and 80.87 % total dose
[1]; Table III, 35 min, single dogs, coinjected with the 99mTc complex of the line
  % total dose in bladder at 35 minutes, 131I: 73.14 % total dose and 77.31 % total dose and 70.39 % total dose and 61.75 % total dose and 77.21 % total dose and 77.10 % total dose and 74.35 % total dose and 82.53 % total dose and 73.20 % total dose and 87.52 % total dose and 75.71 % total dose and 79.39 % total dose
[2]; [9]
  Blood, % total dose per organ ± s.d.: 2.80 ± 0.24 % total dose per organ
  Intestine, % total dose per organ ± s.d.: 1.15 ± 0.23 % total dose per organ
  Kidneys, % total dose per organ ± s.d.: 2.18 ± 0.29 % total dose per organ
  Liver, % total dose per organ ± s.d.: 1.36 ± 0.24 % total dose per organ
  Stomach, % total dose per organ ± s.d.: 0.36 ± 0.10 % total dose per organ
  Urine, % total dose ± s.d.: 64.80 ± 7.31 % total dose per organ
[2]; [10]
  Blood, % total dose per organ ± s.d.: 0.22 ± 0.04 % total dose per organ
  Intestine, % total dose per organ ± s.d.: 0.45 ± 0.19 % total dose per organ
  Kidneys, % total dose per organ ± s.d.: 0.01 ± 0.06 % total dose per organ
  Liver, % total dose per organ ± s.d.: 0.14 ± 0.03 % total dose per organ
  Stomach, % total dose per organ ± s.d.: 0.60 ± 0.19 % total dose per organ
  Urine, % total dose ± s.d.: 89.86 ± 3.03 % total dose per organ
[2]; [7]
  Blood, % total dose per organ ± s.d.: 2.11 ± 0.62 % total dose per organ
  Intestine, % total dose per organ ± s.d.: 0.91 ± 0.27 % total dose per organ
  Kidneys, % total dose per organ ± s.d.: 3.09 ± 3.36 % total dose per organ
  Liver, % total dose per organ ± s.d.: 1.20 ± 0.41 % total dose per organ
  Stomach, % total dose per organ ± s.d.: 0.42 ± 0.63 % total dose per organ
  Urine, % total dose ± s.d.: 78.86 ± 5.1 % total dose per organ
[2]; [8]
  Blood, % total dose per organ ± s.d.: 0.19 ± 0.08 % total dose per organ
  Intestine, % total dose per organ ± s.d.: 0.24 ± 0.04 % total dose per organ
  Kidneys, % total dose per organ ± s.d.: 0.05 ± 0.04 % total dose per organ
  Liver, % total dose per organ ± s.d.: 0.10 ± 0.04 % total dose per organ
  Stomach, % total dose per organ ± s.d.: 0.71 ± 0.27 % total dose per organ
  Urine, % total dose ± s.d.: 93.25 ± 0.89 % total dose per organ
[4]; bolus injection
  time to maximum uptake in normal kidneys: within the first five minutes
[4]; in vivo
  clearance relative to PAH: lower clearance than PAH
[4]; normally hydrated patient, at thirty minutes, 30 min
  injected dose found in the urine: approximately 70%
[4]; normally hydrated patient, bolus injection
  clearance from the renal parenchyma and collecting system: within thirty minutes

## Nc1ccc(C(=O)NCC(=O)O)cc1 [PAH, Paraaminohippuric acid]
[4]; kidneys
  elimination by glomerular filtration: 20%
  elimination by tubular secretion: 80%
[4]; normal adult
  renal plasma flow as measured by PAH: about 575 ml/minute
[4]; normal kidney
  extraction by the normal kidney: 90%

## O=C(NCCS)C(=O)NCCS [XXXII, N, N'-bis(2-mercaptoethyl)oxamide]
[5]
  solubility: soluble only in DMSO, trifluoroacetic acid and aqueous alkali

## O=C1C[S][Tc-]23(=[O])[S]CC(=O)[N]2CC[N]13 [[TcO(ema)]-]
[6]
  excretion route and metabolic state: excreted into both the urine and bile in a chemically unchanged form

## O=C(O)Cn1cc(I)c(=O)c(I)c1 [iodo-pyracet]
[4]; in vivo
  removal from circulation by the liver: partial removal from the circulation by the liver

## [O]=[Tc](=[O])(=[O])[O-] [pertechnetate]
[4]; in vivo
  absolute concentration in the renal parenchyma: low
  filtered activity reabsorbed by the renal tubules: about 86%
  urinary excretion: relatively slow
